Measurements: the supplement of paper PMC10307832

What was measured:
Test in all cases: relative viability (nuclei count vs DMSO), 5 days (fraction); higher = more cells survive
[1] = tested on: NCI-H1651
Method in brief: (§1)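 Dosing by pin tool came one day after lung cancer cell lines were seeded in 1536-well plates, using either one drug or a fixed anchor-drug dose plus five library-drug doses (not always all listed) in √10 steps. After 5 days, nuclei were counted on 4× images. Relative viability is treated-well nuclei count divided by vehicle-well nuclei count, and values are medians of duplicate plates.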

[2] = tested on: NCI-H2228
Method in brief: as §1

[3] = tested on: NCI-H2347
Method in brief: as §1

[4] = tested on: NCI-H647
Method in brief: as §1

[5] = tested on: NCI-H2085
Method in brief: as §1

[6] = tested on: HCC-44
Method in brief: as §1

[7] = tested on: LC-2-ad
Method in brief: as §1

[8] = tested on: COR-L23
Method in brief: as §1

[9] = tested on: NCI-H2170
Method in brief: as §1

[10] = tested on: NCI-H1395
Method in brief: as §1

[11] = tested on: HOP-62
Method in brief: as §1

[12] = tested on: NCI-H838
Method in brief: as §1

[13] = tested on: NCI-H1355
Method in brief: as §1

[14] = tested on: CAL-12T
Method in brief: as §1

[15] = tested on: NCI-H23
Method in brief: as §1

[16] = tested on: NCI-H1993
Method in brief: as §1

[17] = tested on: NCI-H520
Method in brief: as §1

[18] = tested on: NCI-H1666
Method in brief: as §1

[19] = tested on: 201T
Method in brief: as §1

[20] = tested on: NCI-H322M
Method in brief: as §1

## Cc1cnc(-c2cnc(NCCNc3ccc(C#N)cn3)nc2-c2ccc(Cl)cc2Cl)[nH]1 + CC1(C)CCC(c2ccc(Cl)cc2)=C(CN2CCN(c3ccc(C(=O)NS(=O)(=O)c4ccc(N[C@H](CCN5CCOCC5)CSc5ccccc5)c(S(=O)(=O)C(F)(F)F)c4)cc3)CC2)C1 [Navitoclax] (partner 0.5 µM)
[1]; first compound 0.08 µM
  relative viability: 1.09
[1]; first compound 0.253 µM
  relative viability: 0.874
[1]; first compound 0.8 µM
  relative viability: 1.06
[1]; first compound 2.53 µM
  relative viability: 1.2
[2]; first compound 0.08 µM
  relative viability: 0.854
[2]; first compound 0.253 µM
  relative viability: 1.14
[2]; first compound 0.8 µM
  relative viability: 0.796
[2]; first compound 2.53 µM
  relative viability: 0.536
[3]; first compound 0.08 µM
  relative viability: 0.947
[3]; first compound 0.253 µM
  relative viability: 0.625
[3]; first compound 0.8 µM
  relative viability: 0.832
[3]; first compound 2.53 µM
  relative viability: 0.857
[4]; first compound 0.08 µM
  relative viability: 1.19
[4]; first compound 0.253 µM
  relative viability: 0.718
[4]; first compound 0.8 µM
  relative viability: 1.07
[4]; first compound 2.53 µM
  relative viability: 0.723
[5]; first compound 0.08 µM
  relative viability: 1.17
[5]; first compound 0.253 µM
  relative viability: 1.15
[5]; first compound 0.8 µM
  relative viability: 1.03
[5]; first compound 2.53 µM
  relative viability: 1.16
[6]; first compound 0.08 µM
  relative viability: 1.05
[6]; first compound 0.253 µM
  relative viability: 0.792
[6]; first compound 0.8 µM
  relative viability: 0.971
[6]; first compound 2.53 µM
  relative viability: 1.03
[7]; first compound 0.08 µM
  relative viability: 0.53
[7]; first compound 0.8 µM
  relative viability: 0.452
[7]; first compound 2.53 µM
  relative viability: 0.5
[8]; first compound 0.08 µM
  relative viability: 1.07
[8]; first compound 0.253 µM
  relative viability: 1.03
[8]; first compound 0.8 µM
  relative viability: 1.09
[8]; first compound 2.53 µM
  relative viability: 1.06
[9]; first compound 0.08 µM
  relative viability: 0.638
[9]; first compound 0.253 µM
  relative viability: 0.51
[9]; first compound 0.8 µM
  relative viability: 0.517
[9]; first compound 2.53 µM
  relative viability: 0.537
[10]; first compound 0.08 µM
  relative viability: 1.25
[10]; first compound 0.253 µM
  relative viability: 1.15
[10]; first compound 0.8 µM
  relative viability: 1.19
[10]; first compound 2.53 µM
  relative viability: 1.15
[11]; first compound 0.08 µM
  relative viability: 1.13
[11]; first compound 0.253 µM
  relative viability: 0.843
[11]; first compound 0.8 µM
  relative viability: 0.997
[11]; first compound 2.53 µM
  relative viability: 0.768
[12]; first compound 0.08 µM
  relative viability: 1.21
[12]; first compound 0.253 µM
  relative viability: 1.11
[12]; first compound 0.8 µM
  relative viability: 1.44
[12]; first compound 2.53 µM
  relative viability: 1.6
[13]; first compound 0.08 µM
  relative viability: 1.03
[13]; first compound 0.253 µM
  relative viability: 0.858
[13]; first compound 0.8 µM
  relative viability: 0.884
[13]; first compound 2.53 µM
  relative viability: 0.938
[14]; first compound 0.08 µM
  relative viability: 1.29
[14]; first compound 0.253 µM
  relative viability: 1.15
[14]; first compound 0.8 µM
  relative viability: 1.18
[14]; first compound 2.53 µM
  relative viability: 1.06
[15]; first compound 0.08 µM
  relative viability: 0.875
[15]; first compound 0.253 µM
  relative viability: 0.87
[15]; first compound 0.8 µM
  relative viability: 0.63
[15]; first compound 2.53 µM
  relative viability: 0.785
[16]; first compound 0.08 µM
  relative viability: 0.976
[16]; first compound 0.253 µM
  relative viability: 0.906
[16]; first compound 0.8 µM
  relative viability: 0.996
[16]; first compound 2.53 µM
  relative viability: 0.882
[17]; first compound 0.08 µM
  relative viability: 1.22
[17]; first compound 0.253 µM
  relative viability: 1.13
[17]; first compound 0.8 µM
  relative viability: 1.24
[17]; first compound 2.53 µM
  relative viability: 1.13
[18]; first compound 0.08 µM
  relative viability: 0.921
[18]; first compound 0.253 µM
  relative viability: 0.868
[18]; first compound 0.8 µM
  relative viability: 0.835
[18]; first compound 2.53 µM
  relative viability: 1.26
[19]; first compound 0.08 µM
  relative viability: 1.19
[19]; first compound 0.253 µM
  relative viability: 1.17
[19]; first compound 0.8 µM
  relative viability: 1.2
[19]; first compound 2.53 µM
  relative viability: 1.23
[20]; first compound 0.08 µM
  relative viability: 1.3
[20]; first compound 0.253 µM
  relative viability: 1.25
[20]; first compound 0.8 µM
  relative viability: 1.14
[20]; first compound 2.53 µM
  relative viability: 1.2
